Data reported in patent US20100255070A1, “COMPOSITIONS AND METHODS FOR PREVENTING, MINIMIZING AND HEALING SKIN IRRITATION AND TRAUMA” (PRELIEF INC., priority 2007, published 2010).

Assay: Water solubility of the components of the preferred aqueous composition
Type: physicochemical
Conditions: component of the preferred aqueous composition
Excerpt: The film-forming component is designed to be insoluble so that it will form a film on the skin.

- Water Solubility: S
SMILES: OCC(O)CO [Glycerin]
